Key:
poults (turkeys) = assay: Turkey grow out in 20,000 Ft^2 poultry house; format: in vivo
Method: (§1) The present invention is illustrated by the following Examples however, these Examples are not to be construed as limiting the invention.
4. (Prior art) a poultry house was prepared by cleaning out the used animal bedding (shaved wood chips). The poultry house was then sprayed with a maximum formulation of formaldehyde. After a 72 hour drying period, new shaved wood chips were spread in the poultry house and stocked with 15,000 thousand poults (turkeys). The temperature of the house was maintained at 74°% F±4 degrees F. for the term of the grow out. The term of the grow out was 100 days, average moisture content in the bedding was maintained below 14%. Average relative humidity in the house atmosphere ranged from 40% to 84%.
After two to three weeks, 200 pounds of alum (or aluminum sulfate) was spread evenly on top of the shaved wood chips and dispersed throughout.
5. A poultry house was prepared by spraying all house surfaces (ceiling, walls, and padding/floor) with a solution of 2 pounds of 18.7% formulated TCM per 300 gallons of water. The concentration of the TCM for the washdown was 200 ppm. 12,000 young poults (turkeys) were then placed in the poultry house for a 100-day grow out. The average temperature of the house was maintained at 78° F.±4 degrees for the term of the grow out. The bedding material used was shaved wood chips. Average moisture content in the bedding was maintained below 14%. Average humidity in the house atmosphere ranged from 40% to 68%. The term of the grow out was 100 days.
6. A poultry house was prepared by spraying all house surfaces (ceiling, walls, and padding) after a complete cleanout of previous used wood shavings and manure, with a solution of 2 pounds of 18.7% TCM formulation to 300 gallons of water. The concentration of TCM for the washdown was 200 ppm. 6000 young poults (turkeys) were placed on 3 tons of fresh shaved wood chips in the poultry house. A direct spray-on application of the TCM formulation was sprayed on the new wood shavings and allowed to dry. The solution consisted of 1 pound of formulated TCM to 125 gallons of water or 100 ppm. The average temperature inside the poultry house was maintained at 80 degrees±4 degrees F. for the term of the grow out. Average moisture content in the bedding was maintained below 14%. Average relative humidity in the house atmosphere ranged from 50% to 85%. The term of the grow out was 100 days. The poultry house was retreated via a direct spray-on of the formulated TCM was applied to the bedding material at week 10 of the grow out period for the same batch of turkey poults. The concentration of the TCM in solution was 1 pound of formulated TCM per 125 gallons of water.

chickens = assay: Chicken grow out in 20,000 Ft^2 poultry house; format: in vivo
Method: as §1
3. (Prior art) A poultry house was prepared by cleaning out the used animal bedding (shaved wood chips) The poultry house was then sprayed with a maximum formulation of formaldehyde. After a 72 hour drying period new shaved wood chips were spread in the poultry house and stocked with 19,000 thousand chickens, temperature of the house was maintained at 74% F±4 degrees F. for the term of the grow out. The terms of the grow out was 45 days, average moisture content in the bedding was maintained below 14%. Average relative humidity in the house atmosphere ranged from 40% to 84%.
After two weeks, 200 pounds of alum (aluminum sulfate) was spread evenly on top of the shaved wood chips and dispersed throughout.
7. A poultry house was prepared by using used bedding material. The used animal bedding (shaved wood chips) and manure had been in use for 18 months without removal. A direct spray on application consisting of a solution of one pound of TCM per 125 gallons of water or 100 ppm was sprayed on top of the used animal bedding. 19,000 young chickens were placed in the poultry house. The average temperature of the house was maintained at 78 degrees F. for the term of the grow out. Average moisture content in the bedding was maintained below 14%. The term of the grow out was 39 days.

salmonella = assay: Feces sample from animal bedding tested for salmonella by independent laboratory; details: Example 8: 190 ppm TCM washdown; 16,000 poults; feces sample at eight weeks
Method: (§2) 8. A turkey house was prepared by spraying all surfaces with a solution of TCM. New wood chip bedding was then applied. The concentration was 10 pounds of TCM in 1,600 gallons of water or 190 ppm., 16,000 young poults (turkeys) were then placed in the poultry house for a 100 day grow out.
(§3) The purpose of this application was to compare e.Coli and salmonella results in a controlled environment as an alternative to formaldehyde, the current sanitizing method used by the poultry industry. At eight weeks of the grow out period after the wash down and the placement of the young poults, a feces sample was acquired from the animal bedding to determine disease levels from both the test poultry house and the control poultry house of Example 1. An independent laboratory tested the two samples.

e.Coli = assay: Feces sample from animal bedding tested for e.Coli by independent laboratory; details: Example 8: 190 ppm TCM washdown; 16,000 poults; feces sample at eight weeks
Method: as §2, §3

Other avian diseases = assay: Feces sample from animal bedding tested for other avian diseases; details: Example 8: 190 ppm TCM washdown; feces sample at eight weeks
Method: as §2, §3

[1] = test system: hog waste total bacterial content; assay: Percent kill in hog waste mixed with TCM solutions; format: cell-based
Method: 9. Test were conducted on hog waste, 3 gallons of hog waste feces, urine and spillage were prepared. […] Various solution samples of TCM solutions were prepared and mixed with the 3 gallon samples. The percent kill of these various samples was in accordance with Table III.

[2] = Example 4 (prior art): formaldehyde spray, new wood chips, 200 pounds of alum after two to three weeks, 15,000 poults, 100 days
[3] = Example 3 (prior art): formaldehyde spray, new wood chips, 200 pounds of alum after two weeks, 19,000 chickens, 45 days
[4] = Example 5: house surfaces sprayed with 200 ppm TCM, 12,000 poults, 100-day grow out
[5] = Example 6: 200 ppm TCM washdown, 100 ppm spray on new wood shavings, retreated at week 10, 6000 poults, 100 days
[6] = Example 7: 100 ppm TCM sprayed on 18 month used bedding, 19,000 chickens, 39 days

**Q.** Which results are given for C=O [formaldehyde, reference compound]?
**A.** average weight gain for the turkeys (poults (turkeys); [2]): 21.8 pounds; bird mortality rate (poults (turkeys); [2]): 8.1%; birds condemned at the processing facility (poults (turkeys); [2]): 2.3%; average weight gain for the chickens (chickens; [3]): 3.96 pounds; bird mortality rate (chickens; [3]): 3.56%; percentage of birds condemned at the processing facility (chickens; [3]): 0.15%

**Q.** How did the “salmonella in the animal bedding material” value (salmonella) turn out when trichloromelamine [TCM] was run?
**A.** Its value is “no e.Coli or salmonella”.

**Q.** And the bird mortality (poults (turkeys); [4])?
**A.** Its bird mortality is 2.7%.

**Q.** And the “birds condemned at the processing facility” value (poults (turkeys); [4])?
**A.** The value was 1.7%.

**Q.** And the “weight gain for the turkeys” value (poults (turkeys); [4])?
**A.** Its value is 24.3 pounds.

**Q.** And the bird mortality (poults (turkeys); [5])?
**A.** Its bird mortality is 0.7%.

**Q.** And the “birds condemned at the poultry processing facility” value (poults (turkeys); [5])?
**A.** The value was 1.4%.

**Q.** What about the “weight gain for the birds” value (poults (turkeys); [5]) of the same compound?
**A.** Its value is 23.9 pounds.

**Q.** And the “weight gains of the chickens versus control poultry house” value (chickens; Example 7: 100 ppm TCM on used bedding vs control house treated with alum)?
**A.** The value was “insignificant difference”.

**Q.** And the average weight (chickens; [6])?
**A.** Its average weight is 4 pounds.

**Q.** And the bird mortality rate (chickens; [6])?
**A.** The bird mortality rate was 1.1%.

**Q.** And the “birds condemned at the poultry processing facility” value (chickens; [6])?
**A.** Its value is 0.04%.

**Q.** And the “e.Coli in the animal bedding material” value (e.Coli)?
**A.** Its value is “no e.Coli or salmonella”.

**Q.** And the “other avian diseases in the animal bedding material” value (Other avian diseases)?
**A.** The value was “not in the TCM test house”.

**Q.** What about the “PERCENT KILL” value ([1]; 0.25 oz. in 3 gallons of hog waste) of the same compound?
**A.** Its value is 99.997%.

**Q.** What about the “PERCENT KILL” value ([1]; 0.50 oz. in 3 gallons of hog waste) of the same compound?
**A.** The value was 99.9995%.

**Q.** And the “PERCENT KILL” value ([1]; 0.75 oz. in 3 gallons of hog waste)?
**A.** Its value is 99.998%.

**Q.** What about the “PERCENT KILL” value ([1]; 1.0 oz. in 3 gallons of hog waste) of the same compound?
**A.** The value was 99.9998%.

**Q.** What about the “PERCENT KILL” value ([1]; 2.0 oz. in 3 gallons of hog waste) of the same compound?
**A.** Its value is 99.9996%.

**Q.** What about the “PERCENT KILL” value ([1]; 3.0 oz. in 3 gallons of hog waste) of the same compound?
**A.** The value was >99.9998%.

**Q.** And the “PERCENT KILL” value ([1]; 4.0 oz. in 3 gallons of hog waste)?
**A.** The value was >99.9998%.

Reference: patent US6749804B2, “Process for treating animal habitats” (H & S Chemical Company, Inc., priority 2000, dated 2004)
